Results published in patent publication US20100099642A1, “TGF-BETA STIMULANT AND FURTHER AGENT TO REDUCE SIDE EFFECTS” (TCP Innovations Limited, priority 2007, published 2010).

Assays:
[1] = tested on: apoE-deficient mice; assay: vascular lipid lesion formation at the aortic root (Oil Red O) in apoE-deficient mice; format: in vivo, mouse; details: 12 weeks in chow, TMX 1 mg/kg/day, Aspirin 30 mg/kg/day, mean ± SD, n = 8
Excerpt: Adult male apoE-deficient mice, back-crossed onto a C57B16 background for at least five generations, were randomised into groups of eight animals at 12 weeks of age, such that each group had similar average body weight. […] Note that the mice receiving both compounds received food pellets into which a homogenous mixture of the ingredients had been compounded, and not a mixture of food pellets each containing one of the two active ingredients. The amount of food eaten and the body weight of each mouse was monitored daily for the first week, and once per week thereafter. After 12 weeks of treatment, the mice were sacrificed by CO2 asphyxiation, and heart & lung blocks were excised, embedded in Cryo-M-bed (Bright Instruments, UK) without fixation and snap frozen in liquid nitrogen.
Sections were then prepared from the aortic root according to the Paigen Strategy (a defined sequence of cutting sections which allow reproducible comparison between animals; see for example Grainger et al. (1995) Nature Med. 1:1067-72 and the references therein). 4 μm crysosections were cut using a motordriven cryotome (Bright Instruments) and collected onto poly-L-lysine coated glass microscope slides, then fixed in ice-cold acetone for 90 secs, allowed to air dry and stored at −20° C. until analysed.
The extent of vascular lipid lesion formation was assessed by Oil Red O staining, with a Fast Green counterstain, a standard histological procedure well known in the art. Briefly, five sections (selected according to the Paigen strategy) from each animal were passed through graded alcohol solutions, then stained in Oil Red O for 12 minutes, washed several times and then counterstained by dipping in Fast Green for 5-10 secs, and then dip washed in several changes of clean water. After air drying, an appropriate mountant was applied (simple glycerol-based moutants are most appropriate for this task), followed by a coverslip using acrylic varnish surrounding the coverslip to hold it in place. Slides were then analysed using a simple inverted microscope (no phase contrast; 10× objective; Olympus AX series), fitted with a digital camera to capture images of the entire aortic wall. The images were subsequently processed, blind to the treatment status of the animal, using Openlab image analysis software (Improvision, UK) running on an Apple Macintosh computer. […]
Mice were sacrificed and heart & lung blocks prepared and processed exactly as described in Example 2. […] The extent of lipid lesion formation was assessed by Oil Red O staining with Fast Green counterstain, exactly as in example 2.

[2] = tested on: tgfb1 mRNA; assay: tgfb1 mRNA level by quantitative PCR in human aortic vascular smooth muscle cells; format: cell-based; details: 24 hrs, normalised to TBP, vs vehicle
Protocol: (1995) Cardiovasc. Res. 29:848-55). […] The cells were then incubated for either 24 hrs or 72 hrs depending on the experiment. All treatment conditions were established in triplicate. The level of mRNA for tgfb1, tgfb2 and tgfb3 were estimated by quantitative PCR. The media was removed and RNA was carefully prepared using the Ambion RNAqueous4PCR kit (Ambion#1914) in accordance with the manufacturer's instructions. The purity of the RNA and the quantity was assessed spectrophotometrically. […] This analysis results in both a gel-like image as well as electrophoretic data. Indications of RNA degradation are: (a) decreasing ratio of ribosomal bands (b) additional peaks bellow the ribosomal bands (c) Decrease in overall RNA signal (d) shift towards shorter fragments. All the mRNA samples used in the experiments presented here passed this RNA quality control step. Next, the RNA was converted to cDNA using the ABI High-Capacity cDNA Archive Kit, in accordance with manufacturer's instructions. The qPCR assay was then set up as follow: all cDNA samples were diluted to 180 μl total volume using Molecular grade water. Samples were vortexed to ensure thorough mixing. cDNA was aliquoted into ABI 384 well plates using a multi-channel pipette, 4.5 μl of sample into each well. Samples were assayed in triplicate (that is, nine determinations in total were made for each condition, being three separate assays on each of three replicate culture wells). The assay mix and Universal Master Mix were prepared and aliquoted across the 384 well plates 5.5 μl in each well, using a single channel pipette. The final composition of each reaction (10 μl) being: Primer/Probe assay mix (×20)=0.5 μl; Universal Master Mix=5 μl; cDNA=4.5 μl. The plates were then heat sealed using Abgene clear seal strong plastic heat seals, and then cycled and scanned using the […] under the following conditions: 95° C. for 10 minutes to activate the AmpliTaq GOLD, then 40 cycles of: 95° C. for 15 Sec (Denaturation), 60° C. for 60 […]). […] Quantitative PCR was performed using several primer/probe sets. […] We used both commercially available primer/probe sets (ABI Taqman pre-validated assays), using both available sets in the ABI database for tgfb1 and tgfb2, as well as the single available set for tgfb3. In addition, we used our own manual design probe/primer set for each of tgfb1, tgfb2 and tgfb3. For normalisation, we used TATA-binding protein (TBP) as the primary normalisation standard, with GAPDH as an alternative for confirmation, using ABI Taqman pre-validated probe/primer sets. […] Neither TBP nor GAPDH mRNA levels are affected by TGF-beta and are therefore equally suitable, however TBP was selected as the primary normalisation standard because the absolute level of mRNA in most cell types is similar to that of the TGF-beta isoforms, resulting in lower errors on calculating the ratio, and improving the power of the experiment. In all quantitative PCR experiments, several additional controls were included: firstly, a control for each sample is run with no reverse transcription to ensure the mRNA sample is not contaminated with genomic DNA (although the manual design probe/primer sets were all selected to cross an exon/exon boundary, ensuring no detectable amplicon is produced from genomic DNA templates). Secondly, a control reaction is run using serial 2-fold dilutions of a standard cDNA preparation (prepared from commercially available IMAGE clones). This control ensures that the results for the unknown samples are obtained in the linear range of the amplification process, and are therefore truly quantitative. Failure of either control led to the repeat of the entire experiment. Typically, the half maximal signal was obtained after 20-30 amplification cycles. […]

Row | SMILES | Total intimal area [1] | Level of tgfb1 mRNA, estimated by qPCR ([2]; 10 μM A) [fold-change] | Level of tgfb1 mRNA, estimated by qPCR ([2]; 33 μM A) [fold-change] | Level of tgfb1 mRNA, estimated by qPCR ([2]; 100 μM A) [fold-change] | Intimal lipid lesion area [1] | Lipid lesion area [1] | Level of tgfb1 mRNA, estimated by qPCR ([2]; 3.3 μM T) [fold-change] | Level of tgfb1 mRNA, estimated by qPCR ([2]; 10 μM T) [fold-change] | Level of tgfb1 mRNA, estimated by qPCR ([2]; 33 μM T, listed as T) [fold-change] | Level of tgfb1 mRNA, estimated by qPCR ([2]; 33 μM T, listed as TMX)
1 | CC(=O)Oc1ccccc1C(=O)O [Aspirin, acetylsalicylic acid] | 65,209 ± 6,712 μm2 | 1.01 ± 0.04 | 0.93 ± 0.11 | 1.06 ± 0.08 | – | – | – | – | – | –
2 | CC/C(=C(\c1ccccc1)c1ccc(OCCN(C)C)cc1)c1ccccc1 [Tamoxifen] | 64,428 ± 4,294 μm2 | – | – | – | 9,393 ± 2,221 μm2 | 10,794 ± 2,820 μm2 | 0.95 ± 0.16 | 1.27 ± 0.09 | 1.41 ± 0.08 | approximately 1.4 fold-change
